Patent US20250243180A1, “TARGETED PROTEIN DEGRADATION” (Monte Rosa Therapeutics AG, priority 2023, published 2025)
Where two headings read alike, the source gives them in different places.

How the values were obtained:
[1] = molecular target: NEK7 (Homo sapiens (Human), UniProt Q8TDX7+Q96SW2); test: NEK7 NanoBiT degradation assay in Cal51 NEK7 NanoBiT cell line; assay type: cell-based; details: Cal51 NEK7 NanoBiT cells, 24 hours; for Dmax: CAL-51
Protocol: Cal51 NEK7 NanoBiT cell line was generated via CRISPR Knock-In of the HiBiT tag in NEK7 gene and stable infection with a lentivirus carrying LgBiT protein. The cell line was generated in house. For the experiment, cells were plated in 384-well white flat bottom plates (Corning, 3570BC) at 2500 cells per well using Multiflo (BioTek/Agilent) and in 25 μl volume in DMEM experimental medium: DMEM (DMEM, high glucose, HEPES, no phenol red (ThermoFisher Scientific, 21063029) supplemented with 10% FBS (Corning, 35-075-CV), 1% Penicillin/Streptomycin ((ThermoFisher Scientific, 15140-122), and 1% Endurazine (Nano-Glo Endurazine Live Cell Substrate (Promega, N2571)). Cells were incubated for 16 hours at 37° C., 5% CO2 before compound addition. For dose response determination, 2.5 nL of a compound at different concentrations (stock compound concentration range: 10 mM to 0.5 μM, final concentration range inside cell plate: 1 μM to 0.05 nM) were dispensed into the plate using an Echo® 650 liquid handling device (Backman Coulter/Labcyte). Cells were incubated at 37° C., 5% CO2 for 24 hours and then signal was read on a Pherastar FSX using “LUM plus” optic module with 4095 gain and measurement interval time 0.2 seconds.
Analysis was performed in Genedata Screener (Genedata, Basel, CH). Luminescence response (R) was calculated by the formula: response=100*(S−N)/(P−N) where S is the signal of the well, N and P the mean negative and positive control values respectively of the same plate. The luminescence response was then fitted in Genedata using a 4-parameter antagonist logistic fit (hill slope unconstrained, EC50>0, top/bottom unconstrained).

[2] = molecular target: CRBN-DDB1 (Homo sapiens (Human), UniProt Q96SW2); test: Compound binding to CRBN by HTRF assay
Sequence of CRBN-DDB1 (Q96SW2 whole entry): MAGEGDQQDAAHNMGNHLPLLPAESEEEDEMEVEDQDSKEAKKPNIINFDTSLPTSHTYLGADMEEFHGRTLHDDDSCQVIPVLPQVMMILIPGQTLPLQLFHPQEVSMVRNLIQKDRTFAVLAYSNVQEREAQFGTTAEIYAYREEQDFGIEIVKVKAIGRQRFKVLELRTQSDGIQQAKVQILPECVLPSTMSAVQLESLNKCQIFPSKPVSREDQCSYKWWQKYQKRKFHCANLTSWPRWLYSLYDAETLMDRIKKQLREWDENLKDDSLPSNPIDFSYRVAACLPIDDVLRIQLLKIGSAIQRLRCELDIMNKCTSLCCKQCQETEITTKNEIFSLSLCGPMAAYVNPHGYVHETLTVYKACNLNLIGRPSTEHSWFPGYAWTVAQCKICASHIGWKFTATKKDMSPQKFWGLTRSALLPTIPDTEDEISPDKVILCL
Sequence of CRBN-DDB1 (Q16531 whole entry partner): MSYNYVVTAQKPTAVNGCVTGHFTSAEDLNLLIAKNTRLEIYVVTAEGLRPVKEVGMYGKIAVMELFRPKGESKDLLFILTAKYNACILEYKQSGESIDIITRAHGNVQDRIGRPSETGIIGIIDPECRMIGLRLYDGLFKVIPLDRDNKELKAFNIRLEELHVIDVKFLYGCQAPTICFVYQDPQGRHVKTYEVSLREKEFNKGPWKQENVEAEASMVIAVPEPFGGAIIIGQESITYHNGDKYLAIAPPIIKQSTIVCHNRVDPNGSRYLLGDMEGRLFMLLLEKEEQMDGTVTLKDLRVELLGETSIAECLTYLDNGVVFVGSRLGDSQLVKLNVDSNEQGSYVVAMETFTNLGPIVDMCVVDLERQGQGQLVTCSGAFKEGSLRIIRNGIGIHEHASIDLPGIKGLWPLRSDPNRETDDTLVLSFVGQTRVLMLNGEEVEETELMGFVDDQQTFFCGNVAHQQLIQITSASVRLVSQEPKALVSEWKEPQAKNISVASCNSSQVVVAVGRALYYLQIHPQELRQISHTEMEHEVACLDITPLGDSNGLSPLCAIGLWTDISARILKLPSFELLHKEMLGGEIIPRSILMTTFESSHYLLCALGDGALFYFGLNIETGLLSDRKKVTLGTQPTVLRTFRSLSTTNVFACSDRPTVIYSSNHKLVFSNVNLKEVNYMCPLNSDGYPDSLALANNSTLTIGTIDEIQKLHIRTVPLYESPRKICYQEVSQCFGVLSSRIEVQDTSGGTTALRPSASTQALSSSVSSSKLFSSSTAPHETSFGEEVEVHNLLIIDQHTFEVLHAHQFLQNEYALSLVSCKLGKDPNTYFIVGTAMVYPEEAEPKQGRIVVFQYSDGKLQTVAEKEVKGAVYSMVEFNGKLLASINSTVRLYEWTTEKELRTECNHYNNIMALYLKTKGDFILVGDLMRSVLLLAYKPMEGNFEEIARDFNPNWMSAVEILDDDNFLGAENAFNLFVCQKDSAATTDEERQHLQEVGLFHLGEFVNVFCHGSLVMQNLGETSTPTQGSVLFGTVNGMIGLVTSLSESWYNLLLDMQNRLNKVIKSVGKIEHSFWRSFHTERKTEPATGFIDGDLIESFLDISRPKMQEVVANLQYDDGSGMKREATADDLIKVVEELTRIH
Protocol: Compound activity was monitored in a Homogenous Time-Resolved Fluorescence (HTRF) assay using 1-[5-({2-[2-(2-{[2-(2,6-dioxopiperidin-3-yl)-1,3-dioxo-2,3-dihydro-1H-isoindol-4-yl]oxy}acetamido)ethoxy]ethyl}carbamoyl)pentyl]-3,3-dimethyl-2-[(1E,3E)-5-[(2E)-1,3,3-trimethyl-5-sulfo-2,3-dihydro-1H-indol-2-ylidene]penta-1,3-dien-1-yl]-3H-indol-1-ium-5-sulfonate as a fluorescent probe. Biochemical assays were conducted in Greiner white 384 well HiBase plates (Cat. No 784075-25) in 20 μL total volume. A one pot detection solution of CRBN-DDB1 (2.5 nM), Anti-His Terbium Cryptate Gold (1×, PerkinElmer Cat. #: 61HI2TLB), and Cy5-Thalidomide (100 nM, Tenova Cat.: T52461) was prepared in 20 mM HEPES, 20 mM NaCl, 0.2 mM TCEP, 0.2 mM EDTA, and 0.005% Tween20 was dispensed to each assay plate. Compounds were stored in dry, ambient temperatures at 10 mM. An 11-point, 1:3 dilution series was prepared from 10 mM stock concentrations in Echo-compatible LDV plates. 10 nL of each compound dilution series was dispensed into assays wells using an Echo 650 (Labcyte Inc. USA). 20 nL of 10 mM Lenalidomide was transferred into the active-control wells for the assay and 20 nL of DMSO was transferred into the neutral-control wells. The assay was then allowed to incubate for 30 min at ambient temperature after transferring compound. Plate measurements were taken on a Pherastar FSX (BMG Labtech, Germany) using the HTRF Red filter (Ex. 337 nm, em1: 620 nm, em2: 665 nm) (Flashes: 50, Integration time: 60-400 us, Z-height: 10 mm, Ratio-multiplier: 10,000). The HTRF signal was then subsequently normalized to the neutral and active controls. Analysis and EC50 values were derived using KNIME analytics (KNIME Zurich) transformation and fitting within Collaborative Drug Discovery (Collaborative Drug Discovery USA). Ki was derived from the geometric mean of the EC50 values using the Cheng-Prustoff transformation.

[3] = NEK7 degradation, read-out: NanoBiT Dmax
[4] = NEK7 degradation, read-out: NanoBiT DC50

Sequence of NEK7 (Q8TDX7 whole entry): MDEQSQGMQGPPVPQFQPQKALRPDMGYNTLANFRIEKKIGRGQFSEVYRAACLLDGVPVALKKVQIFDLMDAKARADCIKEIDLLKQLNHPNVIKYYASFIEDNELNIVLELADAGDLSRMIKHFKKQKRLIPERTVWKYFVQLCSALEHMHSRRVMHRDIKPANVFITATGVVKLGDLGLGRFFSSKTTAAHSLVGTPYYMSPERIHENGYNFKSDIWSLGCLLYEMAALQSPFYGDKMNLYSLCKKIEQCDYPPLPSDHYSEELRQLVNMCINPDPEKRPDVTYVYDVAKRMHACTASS
Sequence of NEK7 (Q96SW2 whole entry): as the sequence (Q96SW2 whole entry) above
Sequence of NEK7 (Q16531 2-1140 partner): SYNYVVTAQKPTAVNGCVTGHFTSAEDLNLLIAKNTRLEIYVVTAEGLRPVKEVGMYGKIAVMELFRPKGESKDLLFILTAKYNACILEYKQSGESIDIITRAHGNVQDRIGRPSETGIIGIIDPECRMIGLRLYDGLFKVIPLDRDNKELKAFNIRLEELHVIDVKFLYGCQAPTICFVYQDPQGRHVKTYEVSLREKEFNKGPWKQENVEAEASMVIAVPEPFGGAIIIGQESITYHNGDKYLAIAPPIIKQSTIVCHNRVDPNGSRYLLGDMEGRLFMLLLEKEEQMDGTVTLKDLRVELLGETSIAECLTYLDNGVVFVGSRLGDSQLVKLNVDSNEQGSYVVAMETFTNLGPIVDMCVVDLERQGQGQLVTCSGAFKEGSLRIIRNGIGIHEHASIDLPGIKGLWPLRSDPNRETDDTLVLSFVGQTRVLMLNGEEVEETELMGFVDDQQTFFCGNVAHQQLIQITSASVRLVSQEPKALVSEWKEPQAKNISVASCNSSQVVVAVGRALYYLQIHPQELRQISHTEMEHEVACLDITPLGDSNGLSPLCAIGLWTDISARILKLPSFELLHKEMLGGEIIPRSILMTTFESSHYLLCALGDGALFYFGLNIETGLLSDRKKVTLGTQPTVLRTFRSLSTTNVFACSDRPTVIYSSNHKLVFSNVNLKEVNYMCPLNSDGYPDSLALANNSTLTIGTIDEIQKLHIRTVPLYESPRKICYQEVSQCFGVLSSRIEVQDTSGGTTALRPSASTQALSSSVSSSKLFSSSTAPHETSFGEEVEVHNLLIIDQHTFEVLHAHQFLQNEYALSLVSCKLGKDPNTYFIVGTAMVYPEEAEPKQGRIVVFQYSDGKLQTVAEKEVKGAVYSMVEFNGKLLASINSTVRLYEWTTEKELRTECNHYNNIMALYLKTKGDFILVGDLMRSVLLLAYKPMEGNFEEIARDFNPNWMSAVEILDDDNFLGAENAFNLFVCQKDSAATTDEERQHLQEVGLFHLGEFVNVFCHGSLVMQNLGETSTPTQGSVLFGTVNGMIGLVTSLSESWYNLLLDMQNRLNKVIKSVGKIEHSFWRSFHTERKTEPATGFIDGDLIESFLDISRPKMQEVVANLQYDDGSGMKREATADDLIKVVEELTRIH

Dmax ([1]; read-out: NEK7 NanoBiT Dmax) [%]	Dmax [1, 3] [%]	DC50 ([1]; read-out: NEK7 NanoBiT DC50) [nM]	DC50 [1, 4] [nM]	EC50 [2] [nM]	EC50 ([2]; HTRF class, Cereblon binding) [nM]	Compound
95	> 75	2	≤ 100	240	100 to 1000	CC(C)(C(=O)NCc1cc(Cl)c([C@@H]2CCC(=O)NC2=O)c(Cl)c1)c1ncc(C#N)cn1 (single isomer, unassigned) [Compound 152]
90	> 75	53	≤ 100	≥ 10000	> 1000	CC(C)(C(=O)NCc1cc(Cl)c([C@H]2CCC(=O)NC2=O)c(Cl)c1)c1ncc(C#N)cn1 (single isomer, unassigned) [Compound 153]
89	> 75	4	≤ 100	180	100 to 1000	Cc1cnc(C(C)(C)C(=O)NCc2cc(Cl)c([C@@H]3CCC(=O)NC3=O)c(Cl)c2)nc1 (single isomer, unassigned) [Compound 154]
75	50 to 75	186	100 to 1000	≥ 10000	> 1000	Cc1cnc(C(C)(C)C(=O)NCc2cc(Cl)c([C@H]3CCC(=O)NC3=O)c(Cl)c2)nc1 (single isomer, unassigned) [Compound 155]
59	50 to 75	578	100 to 1000	4170	> 1000	CC(C)(C(=O)NCc1cc(Cl)c([C@@H]2CCC(=O)NC2=O)c(Cl)c1)c1ncccn1 (single isomer, unassigned) [Compound 179]
81	> 75	16	≤ 100	120	100 to 1000	CC(C)(C(=O)NCc1cc(Cl)c([C@H]2CCC(=O)NC2=O)c(Cl)c1)c1ncccn1 (single isomer, unassigned) [Compound 180]
77	> 75	32	≤ 100	90	≤ 100	Cc1nnc(C(C)(C)C(=O)NCc2cc(Cl)c([C@@H]3CCC(=O)NC3=O)c(Cl)c2)o1 (single isomer, unassigned) [Compound 224]
49	≤ 50	1000	> 1000	6560	> 1000	Cc1nnc(C(C)(C)C(=O)NCc2cc(Cl)c([C@H]3CCC(=O)NC3=O)c(Cl)c2)o1 (single isomer, unassigned) [Compound 225]
9	≤ 50	1000	> 1000	≥ 10000	> 1000	Cc1cnc(C(C)(C)C(=O)NCc2cc(Cl)c([C@]3(F)CCC(=O)NC3=O)c(Cl)c2)nc1 (single isomer, unassigned) [Compound 243]
19	≤ 50	1000	> 1000	220	100 to 1000	Cc1cnc(C(C)(C)C(=O)NCc2cc(Cl)c([C@@]3(F)CCC(=O)NC3=O)c(Cl)c2)nc1 (single isomer, unassigned) [Compound 244]
70	50 to 75	136	100 to 1000	250	100 to 1000	CC(C)(C(=O)NCc1cc(Cl)c([C@]2(F)CCC(=O)NC2=O)c(Cl)c1)c1ccccc1 (single isomer, unassigned) [Compound 273]
3	≤ 50	1000	> 1000	≥ 10000	> 1000	CC(C)(C(=O)NCc1cc(Cl)c([C@@]2(F)CCC(=O)NC2=O)c(Cl)c1)c1ccccc1 (single isomer, unassigned) [Compound 274]
89	> 75	9	≤ 100	150	100 to 1000	CC(C)(C(=O)NCc1cc(Cl)c(C2CCC(=O)NC2=O)c(Cl)c1)c1ncc(C2CC2)cn1 (centres unmarked) [Compound 1, 2-(5-cyclopropylpyrimidin-2-yl)-N-(3,5-dichloro-4-(2,6-dioxopiperidin-3-yl)benzyl)-2-methylpropan-amide]
91	> 75	45	≤ 100	–	–	CC(C)(C(=O)NCc1ccc(C2CCC(=O)NC2=O)c(Cl)c1)c1ccc(OC(F)(F)F)cc1 (centres unmarked) [Compound 100]
95	> 75	5	≤ 100	–	–	CC(C)(C(=O)NCc1ccc(C2CCC(=O)NC2=O)c(Cl)c1)c1ccc(Cl)cc1 (centres unmarked) [Compound 101]
86	> 75	51	≤ 100	–	–	CC1(C(=O)NCc2ccc(C3CCC(=O)NC3=O)c(Cl)c2)CCc2ccccc2C1 (centres unmarked) [Compound 102]
80	> 75	122	100 to 1000	–	–	CC(C)(C(=O)NCc1ccc(C2CCC(=O)NC2=O)c(Cl)c1)c1cccc(C(F)(F)F)n1 (centres unmarked) [Compound 104]
84	> 75	58	≤ 100	–	–	CC(C)(C(=O)NCc1ccc(C2CCC(=O)NC2=O)c(Cl)c1)c1ccc(Cl)nc1 (centres unmarked) [Compound 105]
40	≤ 50	1000	> 1000	–	–	Cc1noc(C)c1C(C)(C)C(=O)NCc1cc(Cl)c(C2CCC(=O)NC2=O)c(Cl)c1 (centres unmarked) [Compound 112]
61	50 to 75	151	100 to 1000	–	–	CC(C)(C(=O)NCc1cc(Cl)c(C2CCC(=O)NC2=O)c(Cl)c1)c1cscn1 (centres unmarked) [Compound 113]
69	50 to 75	52	≤ 100	–	–	CC(C)(C(=O)NCc1cc(Cl)c(C2CCC(=O)NC2=O)c(Cl)c1)c1cncs1 (centres unmarked) [Compound 114]
76	> 75	43	≤ 100	–	–	CC(C)(C(=O)NCc1cc(Cl)c(C2CCC(=O)NC2=O)c(Cl)c1)c1cc[nH]n1 (centres unmarked) [Compound 115]
80	> 75	20	≤ 100	–	–	Cc1cc(C(C)(C)C(=O)NCc2cc(Cl)c(C3CCC(=O)NC3=O)c(Cl)c2)nn1C (centres unmarked) [Compound 116]
74	50 to 75	51	≤ 100	–	–	Cn1ccc(C(C)(C)C(=O)NCc2cc(Cl)c(C3CCC(=O)NC3=O)c(Cl)c2)n1 (centres unmarked) [Compound 117]
48	≤ 50	760	100 to 1000	–	–	CC(C)(C(=O)NCc1cc(Cl)c(C2CCC(=O)NC2=O)c(Cl)c1)c1c[nH]cn1 (centres unmarked) [Compound 118]
45	≤ 50	1000	> 1000	–	–	Cn1cnnc1C(C)(C)C(=O)NCc1cc(Cl)c(C2CCC(=O)NC2=O)c(Cl)c1 (centres unmarked) [Compound 119]
49	≤ 50	635	100 to 1000	–	–	CC(C)(C(=O)NCc1cc(Cl)c(C2CCC(=O)NC2=O)c(Cl)c1)c1ccc(CC#N)nn1 (centres unmarked) [Compound 214]
